Reference: ChEMBL document CHEMBL1201862, “PubChem BioAssay data set” (2004)
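Growth conditions: 96-well plates. Treatment: test compound, 48 hours, 5 concentrations. Analysis: linear interpolation between bracketing concentrations; unreached endpoints set to highest concentration. GI50 is the concentration that inhibits growth by half.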 The source made the active and inactive calls. No stated cut-off is given here; in the data, active = GI50 up to about 1.1 µM and inactive = higher.

What was measured:
Assay in all cases: DTP human tumour cell line panel, 48 h
786-0 = tested on: 786-0
A498 = tested on: A498
A549 = tested on: A549
ACHN = tested on: ACHN
CAKI-1 = tested on: CAKI-1
CCRF-CEM = tested on: CCRF-CEM
COLO 205 = tested on: COLO 205
DLD-1 = tested on: DLD-1
DMS-114 = tested on: DMS-114
EKVX = tested on: EKVX
HCC 2998 = tested on: HCC 2998
HCT-116 = tested on: HCT-116
HL-60 = tested on: HL-60
HOP-18 = tested on: HOP-18
HOP-62 = tested on: HOP-62
HOP-92 = tested on: HOP-92
HT-29 = tested on: HT-29
IGROV-1 = tested on: IGROV-1
K562 = tested on: K562
KM-20L2 = tested on: KM-20L2
KM12 = tested on: KM12
LOX IMVI = tested on: LOX IMVI
LXFL 529 = tested on: LXFL 529
M14 = tested on: M14
M19-MEL = tested on: M19-MEL
MOLT-4 = tested on: MOLT-4
Malme-3M = tested on: Malme-3M
NCI-H226 = tested on: NCI-H226
NCI-H23 = tested on: NCI-H23
NCI-H460 = tested on: NCI-H460
NCI-H522 = tested on: NCI-H522
OVCAR-3 = tested on: OVCAR-3
OVCAR-4 = tested on: OVCAR-4
OVCAR-8 = tested on: OVCAR-8
RPMI-8226 = tested on: RPMI-8226
RXF 393 = tested on: RXF 393
RXF 631 = tested on: RXF 631
SF-268 = tested on: SF-268
SF-295 = tested on: SF-295
SF-539 = tested on: SF-539
SK-MEL-28 = tested on: SK-MEL-28
SK-MEL-5 = tested on: SK-MEL-5
SK-OV-3 = tested on: SK-OV-3
SN12C = tested on: SN12C
SNB-19 = tested on: SNB-19
SNB-75 = tested on: SNB-75
SNB-78 = tested on: SNB-78
SR = tested on: SR
SW-620 = tested on: SW-620
TK-10 = tested on: TK-10
U-251 = tested on: U-251
UACC-257 = tested on: UACC-257
UACC-62 = tested on: UACC-62
UO-31 = tested on: UO-31
XF498 = tested on: XF498

Measured: GI50

Cc1c(C)c2ccc(OC(C)C(=O)O)cc2oc1=O (stereo not given)
inactive: 786-0 > 100 µM | A498 > 100 µM | A549 > 100 µM | ACHN > 100 µM | CAKI-1 > 100 µM | CCRF-CEM > 100 µM | COLO 205 > 100 µM | DLD-1 > 100 µM | DMS-114 > 100 µM | EKVX > 100 µM | HCC 2998 > 100 µM | HCT-116 > 100 µM | HL-60 > 100 µM | HOP-18 > 100 µM | HOP-62 > 100 µM | HOP-92 > 100 µM | HT-29 > 100 µM | IGROV-1 > 100 µM | K562 > 100 µM | KM-20L2 > 100 µM | KM12 > 100 µM | LOX IMVI > 100 µM | LXFL 529 > 100 µM | M14 > 100 µM | M19-MEL > 100 µM | MOLT-4 > 100 µM | Malme-3M > 100 µM | NCI-H226 > 100 µM | NCI-H23 > 100 µM | NCI-H460 > 100 µM | NCI-H522 > 100 µM | OVCAR-3 > 100 µM | OVCAR-4 > 100 µM | OVCAR-8 > 100 µM | RPMI-8226 > 100 µM | RXF 393 > 100 µM | RXF 631 > 100 µM | SF-268 > 100 µM | SF-295 > 100 µM | SF-539 > 100 µM | SK-MEL-28 > 100 µM | SK-MEL-5 > 100 µM | SK-OV-3 > 100 µM | SN12C > 100 µM | SNB-19 > 100 µM | SNB-75 > 100 µM | SNB-78 > 100 µM | SR > 100 µM | SW-620 > 100 µM | TK-10 > 100 µM | U-251 > 100 µM | UACC-257 > 100 µM | UACC-62 > 100 µM | UO-31 > 100 µM | XF498 35 µM
